According to patent EP1247803A2, “Indolinone compounds suitable for modulation of protein kinases” (Sugen, Inc., priority 1996, dated 1998):

Molecular target: T1, EGFR (Homo sapiens, UniProt P00533)
T1 construct: Add 7 ug A431 cell lysate per well (EGFR source); endogenous in cells; host or cells: A431
Assay: EGFR ELISA assay (in vitro kinase activity, EGFR captured from A431 cell lysate)
Assay type: biochemical
Set-up: concentration or dose not given beside the values
Method in brief: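 EGFR from A431 lysate was captured on plates coated with anti-EGFR antibody. Compounds were added 30 min before a 5 min phosphorylation with 3 µM ATP/5 mM MnCl2, which was stopped with 20 mM EDTA. Phosphotyrosine was detected with rabbit anti-phosphotyrosine, then a peroxidase-conjugated secondary and ABTS/H2O2, read at 410 nm.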

T1 sequence (P00533 25-1210): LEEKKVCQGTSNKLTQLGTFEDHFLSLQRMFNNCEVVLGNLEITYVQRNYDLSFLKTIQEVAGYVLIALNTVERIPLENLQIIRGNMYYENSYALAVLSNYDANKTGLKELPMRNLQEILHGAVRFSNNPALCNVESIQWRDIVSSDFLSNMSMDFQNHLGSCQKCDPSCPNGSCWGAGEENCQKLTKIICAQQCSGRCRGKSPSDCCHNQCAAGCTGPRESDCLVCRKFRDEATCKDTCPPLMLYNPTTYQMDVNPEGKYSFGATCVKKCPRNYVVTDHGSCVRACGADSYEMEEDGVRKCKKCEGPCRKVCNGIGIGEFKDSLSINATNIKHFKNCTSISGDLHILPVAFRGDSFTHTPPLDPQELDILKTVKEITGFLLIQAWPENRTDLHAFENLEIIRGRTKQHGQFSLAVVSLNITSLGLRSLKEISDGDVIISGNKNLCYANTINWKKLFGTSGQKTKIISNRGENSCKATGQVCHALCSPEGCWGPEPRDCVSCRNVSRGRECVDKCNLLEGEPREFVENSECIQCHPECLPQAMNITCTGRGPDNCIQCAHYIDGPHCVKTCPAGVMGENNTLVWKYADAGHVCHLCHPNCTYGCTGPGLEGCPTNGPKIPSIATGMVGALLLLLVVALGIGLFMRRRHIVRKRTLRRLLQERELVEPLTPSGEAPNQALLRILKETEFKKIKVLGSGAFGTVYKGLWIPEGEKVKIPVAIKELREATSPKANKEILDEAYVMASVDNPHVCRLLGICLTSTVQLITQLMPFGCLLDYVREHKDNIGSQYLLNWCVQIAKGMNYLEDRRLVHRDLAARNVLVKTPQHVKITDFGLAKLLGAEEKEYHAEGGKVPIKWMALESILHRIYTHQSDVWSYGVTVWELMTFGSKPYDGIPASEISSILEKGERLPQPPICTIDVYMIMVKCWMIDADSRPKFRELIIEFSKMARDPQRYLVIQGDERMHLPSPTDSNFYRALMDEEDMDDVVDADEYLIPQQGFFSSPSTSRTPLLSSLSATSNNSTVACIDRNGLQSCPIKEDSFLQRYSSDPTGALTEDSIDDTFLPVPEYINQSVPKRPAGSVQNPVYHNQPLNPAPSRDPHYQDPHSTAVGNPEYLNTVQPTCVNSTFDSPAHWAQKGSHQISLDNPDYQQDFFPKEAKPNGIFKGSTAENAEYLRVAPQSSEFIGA

Row | Structure (SMILES) | Biochem EGFR %Inhibition [%]
1 | COC(=O)Cc1c(Cl)[nH]c(C=C2C(=O)Nc3ccc(S(=O)(=O)Nc4ccc(C(F)(F)F)cc4)cc32)c1C(=O)OC [10725/E09] | 31.4
2 | CCOC(=O)c1[nH]c(C=C2C(=O)Nc3c(Br)cc(Br)cc32)c(C(=O)OC)c1C [10726/A03] | -12.5
3 | Cc1cc(C=C2C(=O)Nc3ccc(Br)c(C)c32)cc(C(C)(C)C)c1O [10726/C04] | 58.4
4 | Cc1c(Br)ccc2c1C(=Cc1ccc(N3CCN(C=O)CC3)cc1)C(=O)N2 [10725/C07] | -16.5
5 | Cc1c(Br)ccc2c1C(=Cc1cc(O)c3c(c1O)CCCC3)C(=O)N2 [10726/C07] | 40.8
6 | O=C1Nc2ccc(S(=O)(=O)Nc3ccc(C(F)(F)F)cc3)cc2C1=Cc1c[nH]cn1 [10725/E11] | -36.0
7 | COc1ccc(Br)c(C=C2C(=O)Nc3ccc(CCCl)cc32)c1O [10725/G03] | -2.5
8 | Cc1cc(C=C2C(=O)Nc3ccc(CCCl)cc32)[nH]n1 [10725/G05] | 68.7
9 | Cc1c(Br)ccc2c1C(=Cc1c[nH]cn1)C(=O)N2 [10725/C11] | -22.1
10 | Cc1c(Br)ccc2c1C(=Cc1ccc(N3CCOCC3)cc1)C(=O)N2 [10725/C08] | -11.9
11 | CNS(=O)(=O)c1ccc2c(c1)C(=Cc1c(Br)cnn1-c1ccc(Cl)cc1)C(=O)N2 [10725/D10] | 11.7
12 | Cc1c(Br)ccc2c1C(=Cc1sccc1Br)C(=O)N2 [10725/C02] | -43.4
13 | O=CN1CCN(c2ccc(C=C3C(=O)Nc4ccc(S(=O)(=O)N5CCOCC5)cc43)cc2)CC1 [10725/F07] | 16.4
14 | Cc1ccc(C=C2C(=O)Nc3ccc(S(=O)(=O)Nc4ccc(C(F)(F)F)cc4)cc32)o1 [10725/E04] | 31.2
15 | O=CN1CCN(c2ccc(C=C3C(=O)Nc4ccc(CCCl)cc43)cc2)CC1 [10725/G07] | -25.8
16 | O=C1Nc2c(Br)cc(Br)cc2C1=Cc1ccc(F)cc1 [10717/A05] | 16.6
17 | O=C1Nc2ccc(S(=O)(=O)N3CCOCC3)cc2C1=Cc1ccc[nH]1 [10717/F09] | 1.8
18 | COC(=O)Cc1c(Cl)[nH]c(C=C2C(=O)Nc3ccc(Br)c(C)c32)c1C(=O)OC [10725/C09] | 23.6
19 | CNS(=O)(=O)c1ccc2c(c1)C(=Cc1[nH]c(Cl)c(CC(=O)OC)c1C(=O)OC)C(=O)N2 [10725/D09] | 4.3
20 | O=C1Nc2ccc(S(=O)(=O)N3CCOCC3)cc2C1=Cc1ccc(N2CCOCC2)cc1 [10725/F08] | 15.4
21 | Cc1cn(C)cc1C=C1C(=O)Nc2ccc(Br)c(C)c21 [10726/C06] | -0.9
22 | O=C1Nc2ccc(S(=O)(=O)N3CCOCC3)cc2C1=Cc1sccc1Br [10725/F02] | -3.7
23 | O=C1Nc2ccc(S(=O)(=O)N3CCOCC3)cc2C1=Cc1ccc(Br)cc1 [10717/F08] | -23.4
24 | O=C1Nc2ccc(S(=O)(=O)N3CCOCC3)cc2C1=Cc1c[nH]cn1 [10725/F11] | 20.8
25 | O=C1Nc2c(Br)cc(Br)cc2C1=Cc1cc(O)c2c(c1O)CCCC2 [10726/A07] | 88.7
26 | COC(=O)Cc1c(Cl)[nH]c(C=C2C(=O)Nc3ccc(CCCl)cc32)c1C(=O)OC [10725/G09] | 6.5

Row | Structure (SMILES) | Biochem EGFR %Inhibition [%]
27 | Cc1cc(C=C2C(=O)Nc3ccc(S(=O)(=O)Nc4ccc(C(F)(F)F)cc4)cc32)[nH]n1 [10725/E05] | -5.5
28 | CNS(=O)(=O)c1ccc2c(c1)C(=Cc1sccc1Br)C(=O)N2 [10725/D02] | -23.9
29 | O=C1Nc2ccc(I)cc2C1=Cc1ccc(Br)o1 [10726/B05] | 49.0
30 | CCOc1ccccc1C=C1C(=O)Nc2ccc(CCCl)cc21 [10717/G02] | 32.3
31 | Cc1c(Br)ccc2c1C(=Cc1ccc(Br)o1)C(=O)N2 [10726/C05] | 16.7
32 | CNS(=O)(=O)c1ccc2c(c1)C(=Cc1c(Br)ccc(OC)c1O)C(=O)N2 [10725/D03] | -2.5
33 | COc1cccc(O)c1C=C1C(=O)Nc2ccc(S(=O)(=O)N3CCOCC3)cc21 [10717/F10] | -26.4
34 | Cc1cc(C=C2C(=O)Nc3ccc(Br)c(C)c32)[nH]n1 [10725/C05] | -21.9
35 | O=C1Nc2ccc(F)cc2C1=C1C(=O)Nc2ccc(I)cc21 [10726/B08] | 23.6
36 | COc1cc(C)cc(O)c1C=C1C(=O)Nc2ccc(CCCl)cc21 [10725/G06] | -19.9
37 | COC(=O)Cc1c(Cl)[nH]c(C=C2C(=O)Nc3ccc(S(=O)(=O)N4CCOCC4)cc32)c1C(=O)OC [10725/F09] | 32.2
38 | COc1ccc(Br)c(C=C2C(=O)Nc3ccc(S(=O)(=O)Nc4ccc(C(F)(F)F)cc4)cc32)c1O [10725/E03] | -10.3
39 | Cc1c(Br)ccc2c1C(=Cc1c(Br)cnn1-c1ccc(Cl)cc1)C(=O)N2 [10725/C10] | 5.3
40 | Cc1ccc(C=C2C(=O)Nc3ccc(S(=O)(=O)N4CCOCC4)cc32)o1 [10725/F04] | -49.6
41 | O=C1Nc2ccc(CCCl)cc2C1=Cc1ccc(N2CCOCC2)cc1 [10725/G08] | -13.7
42 | O=C1Nc2ccc(CCCl)cc2C1=Cc1c(Br)cnn1-c1ccc(Cl)cc1 [10725/G10] | 17.8
43 | O=C1Nc2ccc(S(=O)(=O)N3CCOCC3)cc2C1=Cc1c(Br)cnn1-c1ccc(Cl)cc1 [10725/F10] | 3.7
44 | Cc1cn(C)cc1C=C1C(=O)Nc2ccc(I)cc21 [10726/B06] | 6.6
45 | Cc1[nH]c(C=C2C(=O)Nc3ccc(S(=O)(=O)N4CCOCC4)cc32)c(Br)c1Br [10717/F11] | 91.2
46 | Cc1ccc(C=C2C(=O)Nc3ccc(S(=O)(=O)N4CCOCC4)cc32)s1 [10717/F07] | -14.3
47 | COc1cc(C)cc(O)c1C=C1C(=O)Nc2ccc(S(=O)(=O)Nc3ccc(C(F)(F)F)cc3)cc21 [10725/E06] | -17.7
48 | CCc1ccc(C=C2C(=O)Nc3ccc(I)cc32)s1 [10726/B10] | 40.8
49 | O=CN1CCN(c2ccc(C=C3C(=O)Nc4ccc(S(=O)(=O)Nc5ccc(C(F)(F)F)cc5)cc43)cc2)CC1 [10725/E07] | 12.5
50 | CNS(=O)(=O)c1ccc2c(c1)C(=Cc1c[nH]cn1)C(=O)N2 [10725/D11] | -12.5
51 | CNS(=O)(=O)c1ccc2c(c1)C(=Cc1c(O)cc(C)cc1OC)C(=O)N2 [10725/D06] | -26.4
52 | O=C1Nc2ccc(CCCl)cc2C1=Cc1c[nH]cn1 [10725/G11] | -32.4

Row | Structure (SMILES) | Biochem EGFR %Inhibition [%]
53 | CNS(=O)(=O)c1ccc2c(c1)C(=Cc1ccc(N3CCOCC3)cc1)C(=O)N2 [10725/D08] | 20.0
54 | Cc1ccc(C=C2C(=O)Nc3ccc(Br)c(C)c32)o1 [10725/C04] | 31.8
55 | COc1ccc(Br)c(C=C2C(=O)Nc3ccc(Br)c(C)c32)c1O [10725/C03] | -12.7
56 | CCOC(=O)c1[nH]c(C=C2C(=O)Nc3ccc(Br)c(C)c32)c(C(=O)OC)c1C [10726/C03] | 29.8
57 | O=C1Nc2ccc(I)cc2C1=Cc1cc(O)c2c(c1O)CCCC2 [10726/B07] | 72.4
58 | COc1cc(C)cc(O)c1C=C1C(=O)Nc2ccc(S(=O)(=O)N3CCOCC3)cc21 [10725/F06] | -37.8
59 | Cc1cc(C=C2C(=O)Nc3ccc(S(=O)(=O)N4CCOCC4)cc32)[nH]n1 [10725/F05] | -18.9
60 | O=C1Nc2ccc(S(=O)(=O)Nc3ccc(C(F)(F)F)cc3)cc2C1=Cc1c(Br)cnn1-c1ccc(Cl)cc1 [10725/E10] | 6.1
61 | CNS(=O)(=O)c1ccc2c(c1)C(=Cc1cc(C)n[nH]1)C(=O)N2 [10725/D05] | -19.7
62 | O=C1Nc2c(Br)cc(Br)cc2C1=Cc1ccc(Br)o1 [10726/A05] | -28.4
63 | CNS(=O)(=O)c1ccc2c(c1)C(=Cc1ccc(C)o1)C(=O)N2 [10725/D04] | 4.3
64 | COc1ccc(C=C2C(=O)Nc3ccc(I)cc32)cc1 [10726/B11] | 39.4
65 | COc1ccc(Br)c(C=C2C(=O)Nc3ccc(S(=O)(=O)N4CCOCC4)cc32)c1O [10725/F03] | -36.2
66 | COc1cc(C)cc(O)c1C=C1C(=O)Nc2ccc(Br)c(C)c21 [10725/C06] | -11.5
67 | O=C1Nc2ccccc2C1=C1C(=O)Nc2c(Br)cc(Br)cc21 [10726/A09] | -6.3
68 | O=C1Nc2ccc(S(=O)(=O)Nc3ccc(C(F)(F)F)cc3)cc2C1=Cc1ccc(N2CCOCC2)cc1 [10725/E08] | 14.2
69 | Cc1cc(C=C2C(=O)Nc3c(Br)cc(Br)cc32)cc(C(C)(C)C)c1O [10726/A04] | 40.8
70 | Cc1ccc(C=C2C(=O)Nc3ccc(CCCl)cc32)o1 [10725/G04] | -12.3
71 | O=C1Nc2ccc(F)cc2C1=C1C(=O)Nc2c(Br)cc(Br)cc21 [10726/A08] | -28.4
72 | CNS(=O)(=O)c1ccc2c(c1)C(=Cc1ccc(N3CCN(C=O)CC3)cc1)C(=O)N2 [10725/D07] | -25.8
73 | Cc1cc(C=C2C(=O)Nc3ccc(I)cc32)cc(C(C)(C)C)c1O [10726/B04] | 71.1
74 | O=C1Nc2ccc(CCCl)cc2C1=Cc1cccs1 [10717/G03] | 18.8
75 | CCc1ccc(C=C2C(=O)Nc3c(Br)cc(Br)cc32)s1 [10726/A10] | 26.5
76 | Cc1cn(C)cc1C=C1C(=O)Nc2c(Br)cc(Br)cc21 [10726/A06] | 0.2
77 | COc1ccc(C=C2C(=O)Nc3c(Br)cc(Br)cc32)cc1 [10726/A11] | 6.2
78 | CCOC(=O)c1[nH]c(C=C2C(=O)Nc3ccc(I)cc32)c(C(=O)OC)c1C [10726/B03] | 3.5
